Test results taken from PubChem BioAssay (NCI).
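Assay format: 96-well plates, 48-hour exposure. The concentration for 50% growth inhibition is given as GI50. TGI denotes the concentration required for complete inhibition of growth.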

Assays:
Test in all cases: NCI-60 cell line screen, 48 h
786-0 renal = system: 786-0 renal
A498 renal = system: A498 renal
A549 NSCLC = system: A549 NSCLC
ACHN renal = system: ACHN renal
BT-549 breast = system: BT-549 breast
CAKI-1 renal = system: CAKI-1 renal
CCRF-CEM leukemia = system: CCRF-CEM leukemia
COLO 205 colon = system: COLO 205 colon
DU-145 prostate = system: DU-145 prostate
EKVX NSCLC = system: EKVX NSCLC
HCC-2998 colon = system: HCC-2998 colon
HCT-116 colon = system: HCT-116 colon
HCT-15 colon = system: HCT-15 colon
HL-60(TB) leukemia = system: HL-60(TB) leukemia
HOP-62 NSCLC = system: HOP-62 NSCLC
HOP-92 NSCLC = system: HOP-92 NSCLC
HS 578T breast = system: HS 578T breast
HT29 colon = system: HT29 colon
IGROV1 ovarian = system: IGROV1 ovarian
KM12 colon = system: KM12 colon
LOX IMVI melanoma = system: LOX IMVI melanoma
M14 melanoma = system: M14 melanoma
MALME-3M melanoma = system: MALME-3M melanoma
MCF7 breast = system: MCF7 breast
MDA-MB-231 breast = system: MDA-MB-231 breast
MDA-MB-435 = system: MDA-MB-435
MOLT-4 leukemia = system: MOLT-4 leukemia
NCI-H226 lung = system: NCI-H226 lung
NCI-H23 lung = system: NCI-H23 lung
NCI-H460 lung = system: NCI-H460 lung
NCI-H522 lung = system: NCI-H522 lung
NCI/ADR-RES ovarian = system: NCI/ADR-RES ovarian
OVCAR-3 ovarian = system: OVCAR-3 ovarian
OVCAR-4 ovarian = system: OVCAR-4 ovarian
OVCAR-5 ovarian = system: OVCAR-5 ovarian
OVCAR-8 ovarian = system: OVCAR-8 ovarian
PC-3 prostate = system: PC-3 prostate
RPMI-8226 leukemia = system: RPMI-8226 leukemia
RXF 393 renal = system: RXF 393 renal
SF-268 CNS = system: SF-268 CNS
SF-295 CNS = system: SF-295 CNS
SF-539 CNS = system: SF-539 CNS
SK-MEL-2 melanoma = system: SK-MEL-2 melanoma
SK-MEL-28 melanoma = system: SK-MEL-28 melanoma
SK-MEL-5 melanoma = system: SK-MEL-5 melanoma
SK-OV-3 ovarian = system: SK-OV-3 ovarian
SN12C renal = system: SN12C renal
SNB-19 CNS = system: SNB-19 CNS
SNB-75 CNS = system: SNB-75 CNS
SR leukemia = system: SR leukemia
SW-620 colon = system: SW-620 colon
T-47D breast = system: T-47D breast
TK-10 renal = system: TK-10 renal
U251 CNS = system: U251 CNS
UACC-257 melanoma = system: UACC-257 melanoma
UACC-62 melanoma = system: UACC-62 melanoma
UO-31 renal = system: UO-31 renal
K-562 leukemia = system: K-562 leukemia

## Oc1c(CN2CCC(N3CCOCC3)CC2)cc(Cc2cc(CN3CCC(N4CCOCC4)CC3)c(O)c3ncccc23)c2cccnc12
786-0 renal
  GI50: 1070 nM
  TGI: 17700 nM
A498 renal
  GI50: 3740 nM
  TGI: 13900 nM
A549 NSCLC
  GI50: 1620 nM
  TGI: 12500 nM
ACHN renal
  GI50: 481 nM
  TGI: 12900 nM
BT-549 breast
  GI50: 1200 nM
  TGI: 29000 nM
CAKI-1 renal
  GI50: 643 nM
  TGI: 21200 nM
CCRF-CEM leukemia
  GI50: 337 nM
  TGI: > 100000 nM
COLO 205 colon
  GI50: 596 nM
  TGI: 10600 nM
DU-145 prostate
  GI50: 612 nM
  TGI: > 100000 nM
EKVX NSCLC
  GI50: 737 nM
  TGI: > 100000 nM
HCC-2998 colon
  GI50: 1520 nM
  TGI: 13500 nM
HCT-116 colon
  GI50: 383 nM
  TGI: 48700 nM
HCT-15 colon
  GI50: 633 nM
  TGI: 26400 nM
HL-60(TB) leukemia
  GI50: 789 nM
  TGI: 3710 nM
HOP-62 NSCLC
  GI50: 356 nM
  TGI: 18400 nM
HOP-92 NSCLC
  GI50: 4160 nM
  TGI: 36600 nM
HS 578T breast
  GI50: 10000 nM
  TGI: 48000 nM
HT29 colon
  GI50: 709 nM
  TGI: 22300 nM
IGROV1 ovarian
  GI50: 610 nM
  TGI: 48200 nM
KM12 colon
  GI50: 428 nM
  TGI: > 100000 nM
LOX IMVI melanoma
  GI50: 466 nM
  TGI: 4540 nM
M14 melanoma
  GI50: 610 nM
  TGI: 17100 nM
MALME-3M melanoma
  GI50: 4220 nM
  TGI: 26500 nM
MCF7 breast
  GI50: 543 nM
  TGI: > 100000 nM
MDA-MB-231 breast
  GI50: 270 nM
  TGI: 5030 nM
MDA-MB-435
  GI50: 2010 nM
  TGI: 74700 nM
MOLT-4 leukemia
  GI50: 490 nM
  TGI: 12100 nM
NCI-H226 lung
  GI50: 641 nM
  TGI: 4750 nM
NCI-H23 lung
  GI50: 2070 nM
  TGI: > 100000 nM
NCI-H460 lung
  GI50: 471 nM
  TGI: 16600 nM
NCI-H522 lung
  GI50: 2530 nM
  TGI: 9950 nM
NCI/ADR-RES ovarian
  GI50: 3540 nM
  TGI: > 100000 nM
OVCAR-3 ovarian
  GI50: 976 nM
  TGI: 11900 nM
OVCAR-4 ovarian
  GI50: 434 nM
  TGI: > 100000 nM
OVCAR-5 ovarian
  GI50: 2140 nM
  TGI: > 100000 nM
OVCAR-8 ovarian
  GI50: 1570 nM
  TGI: 21900 nM
PC-3 prostate
  GI50: 565 nM
  TGI: > 100000 nM
RPMI-8226 leukemia
  GI50: 3770 nM
  TGI: > 100000 nM
RXF 393 renal
  GI50: 3060 nM
  TGI: 18700 nM
SF-268 CNS
  GI50: 343 nM
  TGI: 38100 nM
SF-295 CNS
  GI50: 549 nM
  TGI: 3130 nM
SF-539 CNS
  GI50: 1110 nM
  TGI: 2900 nM
SK-MEL-2 melanoma
  GI50: 4640 nM
  TGI: 30300 nM
SK-MEL-28 melanoma
  GI50: 1400 nM
  TGI: 22900 nM
SK-MEL-5 melanoma
  GI50: 1590 nM
  TGI: 5110 nM
SK-OV-3 ovarian
  GI50: 758 nM
  TGI: 8960 nM
SN12C renal
  GI50: 670 nM
  TGI: > 100000 nM
SNB-19 CNS
  GI50: 670 nM
  TGI: > 100000 nM
SNB-75 CNS
  GI50: 2570 nM
  TGI: 38200 nM
SR leukemia
  GI50: 593 nM
  TGI: 20500 nM
SW-620 colon
  GI50: 689 nM
  TGI: > 100000 nM
T-47D breast
  GI50: 1110 nM
  TGI: 17000 nM
TK-10 renal
  GI50: 1120 nM
  TGI: 16700 nM
U251 CNS
  GI50: 385 nM
  TGI: 17600 nM
UACC-257 melanoma
  GI50: 3620 nM
  TGI: 16300 nM
UACC-62 melanoma
  GI50: 434 nM
  TGI: 5290 nM
UO-31 renal
  GI50: 366 nM
  TGI: 4480 nM

## Nc1c(C(=O)Nc2ccccc2)sc2nc3c(cc12)CCCCCC3
786-0 renal
  GI50: 551 nM
  TGI: 3930 nM
A498 renal
  GI50: 248 nM
  TGI: 1310 nM
A549 NSCLC
  GI50: 467 nM
  TGI: 20100 nM
ACHN renal
  GI50: 887 nM
  TGI: 14000 nM
BT-549 breast
  GI50: 286 nM
  TGI: 4050 nM
CAKI-1 renal
  GI50: 526 nM
  TGI: 16000 nM
CCRF-CEM leukemia
  GI50: 345 nM
  TGI: > 100000 nM
COLO 205 colon
  GI50: 307 nM
  TGI: 1480 nM
DU-145 prostate
  GI50: 445 nM
  TGI: 12300 nM
EKVX NSCLC
  GI50: 591 nM
  TGI: 25200 nM
HCC-2998 colon
  GI50: 485 nM
HCT-116 colon
  GI50: 328 nM
  TGI: 4850 nM
HCT-15 colon
  GI50: 314 nM
  TGI: 14000 nM
HL-60(TB) leukemia
  GI50: 299 nM
  TGI: 4550 nM
HOP-62 NSCLC
  GI50: 648 nM
  TGI: 6970 nM
HOP-92 NSCLC
  GI50: 523 nM
  TGI: 5100 nM
HS 578T breast
  GI50: 529 nM
  TGI: 9640 nM
HT29 colon
  GI50: 303 nM
  TGI: 1430 nM
IGROV1 ovarian
  GI50: 863 nM
  TGI: 19900 nM
K-562 leukemia
  GI50: 307 nM
  TGI: > 41300 nM
KM12 colon
  GI50: 398 nM
  TGI: 17600 nM
LOX IMVI melanoma
  GI50: 772 nM
  TGI: > 49400 nM
M14 melanoma
  GI50: 233 nM
  TGI: 3150 nM
MALME-3M melanoma
  GI50: 1290 nM
  TGI: 19400 nM
MCF7 breast
  GI50: 288 nM
  TGI: 11800 nM
MDA-MB-231 breast
  GI50: 892 nM
  TGI: 43100 nM
MDA-MB-435
  GI50: 68 nM
  TGI: 266 nM
MOLT-4 leukemia
  GI50: 422 nM
  TGI: > 50900 nM
NCI-H226 lung
  GI50: 652 nM
  TGI: 12700 nM
NCI-H23 lung
  GI50: 650 nM
  TGI: 16400 nM
NCI-H460 lung
  GI50: 352 nM
  TGI: 3910 nM
NCI-H522 lung
  GI50: 271 nM
  TGI: 1290 nM
NCI/ADR-RES ovarian
  GI50: 332 nM
  TGI: 3320 nM
OVCAR-3 ovarian
  GI50: 319 nM
  TGI: 1070 nM
OVCAR-4 ovarian
  GI50: 1110 nM
  TGI: 15700 nM
OVCAR-5 ovarian
  GI50: 699 nM
  TGI: 16900 nM
OVCAR-8 ovarian
  GI50: 478 nM
  TGI: 16700 nM
PC-3 prostate
  GI50: 440 nM
  TGI: > 100000 nM
RPMI-8226 leukemia
  GI50: 379 nM
  TGI: 15700 nM
RXF 393 renal
  GI50: 432 nM
  TGI: 2180 nM
SF-268 CNS
  GI50: 1140 nM
  TGI: 20100 nM
SF-295 CNS
  GI50: 291 nM
  TGI: 1690 nM
SF-539 CNS
  GI50: 231 nM
  TGI: 741 nM
SK-MEL-2 melanoma
  GI50: 857 nM
  TGI: 8890 nM
SK-MEL-28 melanoma
  GI50: 1100 nM
  TGI: 21800 nM
SK-MEL-5 melanoma
  GI50: 393 nM
  TGI: 9070 nM
SK-OV-3 ovarian
  GI50: 465 nM
  TGI: 3000 nM
SN12C renal
  GI50: 1570 nM
  TGI: 60200 nM
SNB-19 CNS
  GI50: 476 nM
  TGI: 24900 nM
SNB-75 CNS
  GI50: 241 nM
  TGI: 898 nM
SR leukemia
  GI50: 138 nM
  TGI: 30900 nM
SW-620 colon
  GI50: 360 nM
  TGI: 50900 nM
T-47D breast
  GI50: 892 nM
  TGI: 20500 nM
TK-10 renal
  GI50: 883 nM
  TGI: 5200 nM
U251 CNS
  GI50: 395 nM
  TGI: 7780 nM
UACC-257 melanoma
  GI50: 3100 nM
  TGI: 28900 nM
UACC-62 melanoma
  GI50: 428 nM
  TGI: 12900 nM
UO-31 renal
  GI50: 945 nM
  TGI: 11900 nM
